Series [1] relates to carrageenin edema of right hind limb plantar. In words: Anti-inflammatory activity, carrageenin edema method. The conditions noted are these: po, 10 mg/kg orally. In kind it is in vivo, SD-rats. As for the experimental part: Anti-Inflammatory Activity
Male SD-rats (6 weeks old, CLEA Japan) were used (1 group, n=6). The Carrageenin edema method was performed according to the method of Winter et. al., (Proc. Soc. Exp. Biol. Med., vol. 111, p. 544-547, 1962). After the volume of right hind limb plantar of the rat was determined, a sample was orally administered (1.0 mL, b.w.), and immediately water was orally administered in an amount of 5 mL/rat. Meanwhile, only the solvent of the sample was orally administered to rats in control. After 1 hour, a solution of 1% carrageenin in saline (0.05 mL) was injected into the right hind limb plantar subcutaneously to induce edema. After 2 and 3 hours later from the injection, volumes of the right hind limb plantar were determined. The repression rate (%) of the sample was calculated by comparing the difference of the volumes of the plantar before the carrageenin shot and 2 and 3 hours after the shot between the sample groups and the control groups.

The test system of series [2] is acetic acid induced rising and stretching. The series can be described thus: Analgesic activity, acetic acid rising method. It is filed as in vivo, ICR-mice. The conditions noted are these: po, 20 min; 10 mg/kg orally, 30 minutes before 0.6% acetic acid i.p.; number of rising and stretching in 20 minutes; read-out: Repression rate (%) Dosage 10 mg/kg. As for the experimental part: Analgesic Activity Acetic Acid Rising Method Male ICR-mice (5 weeks old, CLEA Japan) were used (1 group, n=10), and a sample was orally administered (0.2 mL/10 g, b.w.). After 30 minutes, 0.6% acetic acid solution was injected to mice intraperitoneally (0.1 mL/10 g, b.w.), and the mice were immediately transferred into an observation cage made of a transparent acrylic resin. The number of rising and stretching during the following period of 20 minutes was counted. The repression rate (%) was calculated by comparing the average numbers between the sample groups and the control groups.

For another series, the system named is yeast-induced pyrexia. In words: Antipyretic activity in yeast-induced pyrexia. In kind it is in vivo, SD rats. Particulars: 10 mg/kg orally; maximum difference in body temperature vs control over 6 hours. How it is done:
Antipyretic Activity in Yeast-Induced Pyrexia Antipyretic activity was determined using male SD origin male-rats (7 weeks old, CLEA Japan, 1 group: n=6), according to the method of winter et. al. (J. Pharmacol. Exp. Ther., vol. 138, p. 405, 1963). Before 16 hours from measurement of body temperature, a suspension of 15% yeast in saline was injected subcutaneously (10 mL/kg, b.w.) into the rats to induce fever, and simultaneously supply of food was terminated while water was made available all the time. Each of the rats was raised separately. After 16 hours from the yeast shot, a thermistor terminal was inserted at an about 4 cm depth into rectum every hour, and the body temperatures after 30 seconds were recorded. After 18 hours, rats developing fevers consistently were selected, and a sample was orally administered to the rats (5 mL/kg, b.w.), while to the control, only the solvent was administered. After the administration, body temperatures were measured every hour for a period of 6 hours, and the maximum difference in body temperature between the rats in the sample group and in the control group were determined as Δ (° C.).

In another series the test system is adjuvant arthritis. The series can be described thus: Anti-adjuvant-arthritic activity. In kind it is in vivo, SD rats. The conditions noted are these: 10 mg/kg orally once a day for 14 days; volume of left hind limb (not injected); day of reading not given. How it is done:
Anti-Adjuvant-Arthritic Activity
Male SD origin male-rats (6 weeks old, CLEA Japan, 1 group: n=7) were used. The adjuvant arthritis method was conducted according to the method of Newbould B. B. et. al., (Brit. J. Pharmacol. Chemother., vol. 21, p. 127, 1963). Complete Freund's adjuvant (a suspension of killed tubercule bacillus in liquid paraffin at a concentration of 0.5%, 0.05 mL) was injected into the right hind limb footpad intracutaneouly to induce multiple arthritis. Samples were administered orally (10 mg/kg, b.w.), once a day for 14 days from the day before the injection day 0 to day 13. Volume of the left hind limb (not injected) was determined by the foot-volume measurement apparatus manufactured by Ugo Basile, on the day just before the adjuvant shot (Day 0), Day 10 and Day 14, and repression rate (%) was calculated comparing the values between the sample group and the control group.

A further series relates to gastric mucosa. The series can be described thus: Disorder of gastric mucosa. Particulars: stomach, 1000 mg/kg orally, fasted rats, 6 hours after dosing. In kind it is in vivo, SD rats. As for the experimental part:
Disorder of Gastric Mucosa
Male SD origin male-rats (7 weeks old, CLEA Japan) were used. After 24 hours from the termination of food supply, samples were orally administered (5 mL/kg, b.w.). After 5.5 hours, Evan's Blue (0.5% Evan's Blue/saline) was injected intravenously (1 mL/rat) under no anesthesia. After 30 minutes from the shot, the stomach (with esophagus and duodenum of 1.5 to 2 cm length) was removed by celiotomy, and subsequently, the esophagus terminal was closed with a clip, and a 8 mL of 1% formalin solution was injected into the stomach through the duodenum, which was also closed with a clip after the injection. The stomach was left contacting with the 1% formalin solution for more than 10 minutes, and subsequently cut open from duodenum along the greater curvature of stomach. The stomach was washed and spread on a filter paper, and the length of each of the spots dyed by Evan's Blue (hemorrhagic portion: mucosal ablation to ulcer) was measured under a stereomicroscope, and the total length (mm) was calculated by a counter and recorded.

The target of a further series is T1, human COX-1 (Homo sapiens, UniProt P23219).
T1 construct: made in house; host or cells: Sf-21 insect cells (recombinant baculovirus BAC-COX1, pFASTBAC1); microsome fraction
In words: Determination of COX-1 inhibitory activity (microsome fraction, chemiluminescence). In kind it is biochemical. Particulars: microsome fraction 40 μg, arachidonic acid, 37° C. 25 minutes preincubation; read-out: Repression rate IC50 (μM) COX-1. How it is done:
A 1.8 kb DNA fragment containing human COX-1 cDNA (FASEB J., vol. 5 (9), p. 2304-2312 (1991)) prepared by the PCR method was inserted into plasmid pFASTBAC1 (CIBCOBRL) to obtain a plasmid pFBCOX1.
Using the plasmid pFBCOX1 and BAC-TO-BAC Baculovirus Expression System (GIBCOBRL), a virus stock BAC-COX1 of the recombinant baculovirus was prepared.
Sf-21 cells were inoculated in 125 mL of Sf-900 II SFM medium (GIBCOBRL) at a concentration of 1×10^6 cells/mL, and the medium was incubated at 27° C. for 24 hours. 0.75 mL of the virus stock BAC-COX1 of the recombinant baculovirus was added thereto, and the mixture was incubated further for 72 hours. The cells were separated from the medium by centrifugation (3000 rpm, 10 min), and washed with PBS twice. The cells were suspended in 10 mL of a Lysis buffer (0.1M Tris-HCl (pH 7.4), 5 mM EDTA), and were treated with a homogenizer (POLYTRON) three times at 20000 rpm for 20 seconds so that the cells were crushed. The supernatant obtained after centrifugation (2000 rpm, 10 minutes) was further centrifuged (40000 rpm, 45 minutes) to give a precipitate, which was resuspended in a Lysis buffer (0.1M Tris-HCl (pH 7.4), 5 mM EDTA), and the suspension was stored at −80° C.
(§1) Determination of COX-1 and COX-2 Inhibitory Activities
(§2) To a mixture of 20 μL of a reaction buffer previously concentrated 10 times (1M Tris-HCl (pH8.0), 50 mM EDTA, 1.0% Tween 20, 50 mM luminol, 100 μM hematin), 20 μL of the microsome fractions (COX-1: 40 μg, COX-2: 20 μg), and 55 μL of distilled water, a sample compound dissolved in DMF (5 μL) was added, and the mixture was left at 37° C. for 25 minutes. The reaction was started by the addition of 20 μM arachidonic acid (100 μL), and chemiluminescence amount during the 10-second period after the addition of arachidonic acid was determined by the use of Lumistar (BMG Lab technologies, GmbH). The inhibition rate was calculated, regarding that the enzyme activity when DMF ([…]) was added was 100%, and the enzyme activity when 4 mM flurbiprofen (5 μL) was added was 0%.

The target of a further series is T2, human COX-2 (Homo sapiens, UniProt P35354).
T2 construct: made in house; host or cells: Sf-21 insect cells (recombinant baculovirus BAC-COX2, pFASTBAC1); microsome fraction
T2 sequence (P35354 18-604): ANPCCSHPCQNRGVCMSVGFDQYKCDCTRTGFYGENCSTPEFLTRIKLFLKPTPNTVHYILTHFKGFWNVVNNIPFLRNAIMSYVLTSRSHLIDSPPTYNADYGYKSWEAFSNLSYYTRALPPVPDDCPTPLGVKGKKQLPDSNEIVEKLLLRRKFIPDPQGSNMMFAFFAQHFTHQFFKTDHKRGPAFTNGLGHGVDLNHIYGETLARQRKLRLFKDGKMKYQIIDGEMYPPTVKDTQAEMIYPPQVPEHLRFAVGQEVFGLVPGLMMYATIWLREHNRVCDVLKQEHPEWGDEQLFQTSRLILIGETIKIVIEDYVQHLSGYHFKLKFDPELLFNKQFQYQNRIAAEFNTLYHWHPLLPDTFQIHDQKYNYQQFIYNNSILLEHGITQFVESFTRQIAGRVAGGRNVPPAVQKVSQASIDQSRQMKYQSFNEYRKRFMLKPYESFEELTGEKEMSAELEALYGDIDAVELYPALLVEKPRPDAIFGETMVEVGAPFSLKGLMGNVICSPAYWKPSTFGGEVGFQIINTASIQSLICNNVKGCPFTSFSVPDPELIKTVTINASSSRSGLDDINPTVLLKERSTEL
In words: Determination of COX-2 inhibitory activity (microsome fraction, chemiluminescence). It is filed as biochemical. The conditions noted are these: microsome fraction 20 μg, arachidonic acid, 37° C. 25 minutes preincubation; read-out: Repression rate IC50 (μM) COX-2. As for the experimental part:
A 1.8 kb DNA fragment containing human COX-2 cDNA (Proc. Natl. Acad. Sci. U.S.A., vol. 89 (16), p. 7384-7388 (1992)) prepared by the PCR method was inserted into plasmid pFASTBAC1 (CIBCOBRAL) to obtain a plasmid pFBCOX2.
Using the plasmid pFBCOX2 and BAC-TO-BAC Baculovirus Expression System (GIBCOBRAL), a virus stock BAC-COX2 of the recombinant baculovirus was prepared.
Sf-21 cells were inoculated in 125 mL of LSf-900 II SFM medium (GIBCOBRAL) at a concentration of 1×10^6 cells/mL, and the medium was incubated at 27° C. for 24 hours. 0.75 mL of the virus stock BAC-COX2 of the recombinant baculovirus was added thereto, and was incubated further for 72 hours. The cells were separated from the medium by centrifugation (3000 rpm, 10 min), and washed with PBS twice. The cells were suspended in 10 mL of a Lysis buffer (0.1M Tris-HCl (pH 7.4), 5 mM EDTA), and were treated with a homogenizer (POLYTRON), three times at 20000 rpm for 20 seconds so that the cells were crushed. The supernatant thus obtained after centrifugation (2000 rpm, 10 minutes) was further centrifuged (40000 rpm, 45 minutes) to obtain a precipitate, which was resuspended in a Lysis buffer (0.1M Tris-HCl (pH 7.4), 5 mM EDTA), and the suspension was stored at −80° C.
as §1, §2

Series [3] relates to mucosa of small intestine. In words: Disorder of mucosa of small intestine. It is filed as in vivo, SD rats. The conditions noted are these: 300 mg/kg orally, freely fed rats, 6 hours after dosing. As for the experimental part: Disorder of Mucosa of Small Intestine Male SD origin male-rats (7 weeks old, CLEA Japan) were used. To the rats freely fed, samples were administered orally (5 mL/kg, b.w.). After 5.5 hours from the administration, Evan's Blue (0.5% Evan's Blue/saline) was injected (1 mL/rat) intravenously under no anesthesia. After 30 minutes from the shot, the intestine was removed by celiotomy and the area thereof facing mesentery was cut open. After removal of intestinal content, the spots in the intestine dyed by Evan's Blue were measured under a stereomicroscope, and the total length (mm) of the spots was determined by a counter and recorded.

Like-named read-outs stand apart in the source and are kept apart here. Marks after values point to notes of the source that are not given here.

T1 sequence (P23219 24-599): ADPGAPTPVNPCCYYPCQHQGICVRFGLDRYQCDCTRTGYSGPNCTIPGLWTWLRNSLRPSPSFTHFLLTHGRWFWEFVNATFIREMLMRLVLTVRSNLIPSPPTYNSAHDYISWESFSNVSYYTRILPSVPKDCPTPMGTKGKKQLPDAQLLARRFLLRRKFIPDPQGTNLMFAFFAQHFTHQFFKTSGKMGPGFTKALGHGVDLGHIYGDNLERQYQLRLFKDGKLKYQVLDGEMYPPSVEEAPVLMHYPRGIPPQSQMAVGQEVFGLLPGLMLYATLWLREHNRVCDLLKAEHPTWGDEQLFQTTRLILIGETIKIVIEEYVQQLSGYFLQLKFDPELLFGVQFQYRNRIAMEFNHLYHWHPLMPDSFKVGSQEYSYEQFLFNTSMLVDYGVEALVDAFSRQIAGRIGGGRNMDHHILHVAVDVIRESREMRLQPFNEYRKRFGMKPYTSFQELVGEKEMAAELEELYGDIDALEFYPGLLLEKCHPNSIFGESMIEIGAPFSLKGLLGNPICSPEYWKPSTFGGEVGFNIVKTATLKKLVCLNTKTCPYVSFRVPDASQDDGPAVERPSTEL

On to `Cc1nn(-c2ccccn2)c2[nH]c3cc(F)c(F)cc3c(=O)c12` [Example 2-91, 6,7-Difluoro-3-methyl-1-(2-pyridinyl)-1,9-dihydro-4H-pyrazolo[3,4-b]quinolin-4-one], for which the melting point (commonly the temperature, or range, at which the solid turns liquid) was in the range of 274 to 277 °C. Besides, the inhibition in vivo at 10 mg/kg in series [1] (2 hr after carrageenin injection, read-out: Repression rate (%) Dosage 10 mg/kg 2 hr later) turned out to be 51%. Moreover, in [1] (3 hr after carrageenin injection, read-out: Repression rate (%) Dosage 10 mg/kg 3 hr later), the inhibition in vivo at 10 mg/kg was determined as 42%. In addition, the inhibition in vivo at 10 mg/kg in series [2] was 65%. Also, the “Δ (° C.) Dosage 10 mg/kg” value in the series with yeast-induced pyrexia is given as 1.5** ° C. Besides, the “Repression rate (%) Dosage 10 mg/kg” value in the series on adjuvant arthritis was 76** %. In addition, in the series on gastric mucosa, the “Total length of dyed spots (mm)” value was 0 (1000 mg/kg) mm.

For the compound `Cc1nn(-c2ccccn2)c2[nH]c3cc(F)c(F)cc3c(=O)c12.O` [Example 2-92, 6,7-Difluoro-3-methyl-1-(2-pyridinyl)-1,9-dihydro-4H-pyrazolo[3,4-b]quinolin-4-one monohydrate], the IC50 (usually the concentration that gives 50% inhibition) on human COX-1 stood at 0.677 µM; on human COX-2, 0.465 µM. In addition, the “Total length of dyed spots (mm)” value with gastric mucosa is given as 0 (1000 mg/kg) mm; in [3] it was 0 (300 mg/kg) mm.

The record behind these values is US6949648B2, “Condensed pyrazole derivatives, process for producing the same and use thereof” (Takeda Pharmaceutical Company Limited, priority 2000, dated 2005).
